Laboratory results: PubChem BioAssay (NCI)
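In this assay, cells in 96-well plates receive the compound at five concentrations for 48 hours. Endpoints are linearly interpolated between the surrounding concentrations. GI50: concentration for 50% inhibition of growth. The concentration for full growth arrest is given as TGI.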

Tests used:
Assay in all cases: inhibition of tumour cell growth, NCI panel, 48 h
[1] = test system: OVCAR-4 ovarian
[2] = test system: UO-31 renal
[3] = test system: HL-60(TB) leukemia
[4] = test system: RPMI-8226 leukemia
[5] = test system: A549 NSCLC
[6] = test system: CCRF-CEM leukemia
[7] = test system: OVCAR-3 ovarian
[8] = test system: IGROV1 ovarian
[9] = test system: NCI/ADR-RES ovarian

| Compound | TGI [1] [µM] | TGI [2] [µM] | TGI [3] [µM] | TGI [4] [µM] | TGI [5] [µM] | TGI [6] [µM] | TGI [7] [µM] | TGI [8] [µM] | GI50 [1] [µM] | GI50 [2] [µM] | GI50 [3] [µM] | GI50 [8] [µM] | GI50 [4] [µM] | GI50 [5] [µM] | GI50 [6] [µM] | GI50 [7] [µM] | GI50 [9] [µM] | TGI [9] [µM] |
| --- | --- | --- | --- | --- | --- | --- | --- | --- | --- | --- | --- | --- | --- | --- | --- | --- | --- | --- |
| COc1cc(/C=C(\C#N)C(=O)c2ccccc2)cc(OC)c1OC | > 100 | > 100 | > 100 | > 100 | > 100 | > 100 | > 100 | – | – | – | – | – | – | – | – | – | – | – |
| O=C(NC(=Nc1ccccc1)SCCSC(=Nc1ccccc1)NC(=O)c1ccccc1)c1ccccc1 | > 100 | 88.2 | – | > 100 | > 100 | > 100 | > 100 | > 100 | – | – | – | – | – | – | – | – | – | – |
| Cc1nc2ccccc2c(=O)n1/N=C(\N=Nc1ccc(Cl)cc1)c1ccc(N(C)C)cc1 | – | > 100 | – | – | > 100 | > 100 | – | > 100 | – | – | – | – | – | – | – | – | – | – |
| N=C(N)c1ccc(-c2ccc(-c3cccs3)s2)cc1F | 3.85 | 3.34 | 3.83 | 0.951 | 1.27 | 3.46 | 3.09 | 4.74 | 1.54 | 1.55 | 1.79 | 2.28 | 0.288 | 0.0305 | 1.58 | 1.47 | 2 | 4.3 |
| O=C1N(c2ccccc2)C2(O)C(=O)c3ccccc3C2(O)N1c1ccccc1 (stereo unspecified) | > 100 | > 100 | – | > 100 | > 100 | > 100 | > 100 | > 100 | – | – | – | – | – | – | – | – | – | – |
| N#CC1(C2CC(=O)N(c3ccccc3)C2=O)CCCCC1=O (stereo unspecified) | > 100 | > 100 | > 100 | > 100 | > 100 | > 100 | > 100 | > 100 | – | – | – | – | – | – | – | – | – | – |
| CC(=O)NNc1nc(C)c(C(=O)NNC(=O)C(=O)Nc2ccc(C)cc2[N+](=O)[O-])s1 | > 100 | > 100 | > 100 | > 100 | > 100 | > 100 | > 100 | > 100 | – | – | – | – | – | – | – | – | – | – |
| Cc1cc2c(=O)cc(-c3ccncc3)oc2c(C(N)=O)c1C | – | > 100 | > 100 | > 100 | > 100 | > 100 | > 100 | > 100 | – | – | – | – | – | – | – | – | – | – |
| Cc1cc(Br)ccc1N=NC1C(=O)ON=C1c1ccccc1 (stereo unspecified) | > 100 | > 100 | > 100 | > 100 | > 100 | – | > 100 | > 100 | – | – | – | – | – | – | – | – | – | – |
| CC(=O)Nc1ccc(/C=C/C(=O)c2sc(-n3nc(-c4ccccc4)cc3-c3ccccc3)nc2C)cc1 | > 100 | > 100 | > 100 | > 100 | > 100 | > 100 | > 100 | > 100 | – | > 100 | > 100 | > 100 | > 100 | > 100 | > 100 | > 100 | – | – |
| COc1cc(Br)c(C2OCCCO2)cc1OCc1ccccc1 | > 100 | > 100 | > 100 | > 100 | > 100 | > 100 | > 100 | > 100 | – | – | – | – | – | – | – | – | – | – |
| CC1CC(=O)C(CC(=O)O)[C@H]1C(C(=O)C(=O)Nc1cc(Cl)ccc1Cl)[N+](=O)[O-] (stereo partly specified) | – | > 100 | > 100 | > 100 | > 100 | > 100 | > 100 | > 100 | – | – | – | – | – | – | – | – | – | – |
| CCC[CH2][Sn]1([CH2]CCC)[O]C(=O)c2cccnc2[S]1 | 21.9 | 20.9 | 3.31 | 5.29 | 31.6 | 1.02 | 12.5 | 23.5 | 10.1 | 8.59 | 1.42 | 11.2 | 1.48 | 16.8 | 0.058 | 3.49 | – | – |
| COc1ccc(Cc2c3cc(OC)c(OC)cc3cc[n+]2C)cc1 | > 40.5 | > 51.4 | > 100 | > 100 | > 46.5 | > 100 | 36.2 | > 69.4 | – | – | – | – | – | – | – | – | – | – |
| COc1cc(CC2c3cc(OC)c(OC)cc3CCN2C)c(C(=O)O)cc1OC (stereo unspecified) | – | > 100 | > 100 | > 100 | > 100 | > 100 | > 100 | – | – | – | – | – | – | – | – | – | – | – |
| O=C(c1ccco1)c1c(C(F)(F)F)n([O-])c2cc(Cl)c(Cl)cc2[n+]1=O | 12.7 | 0.211 | 0.18 | 3.29 | 2.55 | 9.5 | 0.316 | 2.53 | 4.17 | 0.0465 | 0.0812 | 0.113 | 0.196 | 1.04 | 0.384 | 0.0798 | 0.845 | 1.78 |
